Results as given in PMC11258331 (Scientific Reports, 2024).
Marks after values point to notes of the source that are not given here. One block for each compound: values may come before it.

Key:
[1] = system: platelet aggregation induced by adenosine diphosphate (ADP); assay: ADP (20 µM)-induced platelet aggregation, light transmission aggregometry; format: in vivo, human; settings: drug alone (Treatment E or H)
Description: (§1) PD assessments were performed on Days 1 (≤ 24 h) and 5 (≤ 72 h) of each period (Supplementary Table 8); assessments included aPTT[18], FXIc[18], and bleeding time (assessed according to the PPD® Laboratories [Austin, TX] procedure where a blood pressure cuff, situated above the incision site, provided pressure at 40 mmHg and blood from the incision was wicked with filter paper every 30 s until cessation to record bleeding time). In addition, AA (1 mM), ADP) (20 µM)-, and collagen (5 μg/ml)-induced platelet aggregation assays were performed using light transmission aggregometry (PPD® Laboratories) and performed on Days 1 and 5 (≤ 24 h) for only Period 1.

[2] = system: platelet aggregation induced by collagen; assay: Collagen (5 μg/ml)-induced platelet aggregation, light transmission aggregometry; format: in vivo, human; settings: drug alone (Treatment E or H)
Description: as §1

[3] = system: arachidonic acid (AA)-induced platelet aggregation; assay: AA (1 mM)-induced platelet aggregation, light transmission aggregometry; format: in vivo, human; settings: drug alone (Treatment E or H)
Description: as §1

healthy participants = assay: Adverse events and bleeding-related AEs by treatment, phase I DDI study;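 note: counts from medical review of adverse event and bleeding-related adverse event reports, collected at selected times across the dosing interval, single US site, randomised 1:1:1 to one study part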
Description: Participants underwent screening evaluations to determine eligibility within 35 days of study drug administration, and eligible participants were randomly assigned 1:1:1 to a single part of the study.
Safety assessments were performed at selected times throughout the dosing interval (Supplementary Table 7). The assessments were based on medical review of AE and bleeding-related AE reports, and the results of vital sign measurements, ECG measurements, physical examinations, and clinical laboratory tests.

[4] = Plasma pharmacokinetics (LC-MS/MS, noncompartmental; GMR by linear mixed-effects model); settings: for Increase of AUC(TAU) / Increase of Cmax: Treatment I (with milvexian) vs Treatment H (aspirin alone); for Cmax / Tmax / AUC / half-life: human, plasma, oral; for AUC: AUC(TAU); for half-life: T1/2, arithmetic mean [n] (SD);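 for all read-outs here: participants at one US clinical research site, randomized 1:1:1 to a single study part, with 90% CIs from a mixed-effects model on log-transformed PK parameters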
Description: (§2) The study (ClinicalTrials.gov Identifier: NCT03698513) was conducted at 1 clinical research center in the United States. […] Participants underwent screening evaluations to determine eligibility within 35 days of study drug administration, and eligible participants were randomly assigned 1:1:1 to a single part of the study.
(§3) All statistical analyses and calculations were performed using SAS® software (SAS Institute, Inc., Cary, North Carolina; version 9.3). All safety and plasma PK/PD data were summarized using descriptive statistics. Descriptive summaries were presented for continuous variables using number of subjects (N), mean, SD; median, minimum, and maximum. […] CIs were constructed using a linear mixed-effects model with treatment as a fixed effect and measurements within participants as repeated measures fitted to the log-transformed PK parameters.

[5] = in vivo
Description: as §2, §3

[6] = geometric mean (90% CI), Day 1, Treatment A (milvexian + aspirin + clopidogrel), Part 1
[7] = geometric mean (90% CI), Day 1, Treatment C (placebo + aspirin + clopidogrel), Part 1
[8] = geometric mean (90% CI), Day 1, Treatment H (placebo + aspirin), Part 3
[9] = geometric mean (90% CI), Day 1, Treatment I (milvexian + aspirin), Part 3
[10] = geometric mean [n] (90% CI), Day 5, Treatment C (placebo + aspirin + clopidogrel), Part 1
[11] = geometric mean [n] (90% CI), Day 5, Treatment H (placebo + aspirin), Part 3
[12] = median (range), Day 1, Treatment A (milvexian + aspirin + clopidogrel), Part 1
[13] = median (range), Day 1, Treatment C (placebo + aspirin + clopidogrel), Part 1
[14] = median (range), Day 1, Treatment H (placebo + aspirin), Part 3
[15] = median (range), Day 1, Treatment I (milvexian + aspirin), Part 3
[16] = median [n] (range), Day 5, Treatment C (placebo + aspirin + clopidogrel), Part 1
[17] = median [n] (range), Day 5, Treatment H (placebo + aspirin), Part 3

SMILES: CC(=O)Oc1ccccc1C(=O)O [Aspirin, acetylsalicylic acid, reference compound]
Inhibition of ADP-induced aggregation compared with baseline [1]: ~ 15% | Inhibition of collagen-induced aggregation compared with baseline [2]: ~ 25% | Inhibition of AA-induced aggregation compared with baseline [3]: ~ 95% | Anal fissure hemorrhage (healthy participants; Part 3 (Treatments G-I)): 0 n (%) | Contusion (healthy participants; Part 3 (Treatments G-I)): 0 n (%) | Deaths (healthy participants; Part 3 (Treatments G-I)): 0 n (%) | Discontinuations due to AEs (healthy participants; Part 3 (Treatments G-I)): 0 n (%) | Epistaxis (healthy participants; Part 3 (Treatments G-I)): 1 (2.6)^‡‡ n (%) | Gingival bleeding (healthy participants; Part 3 (Treatments G-I)): 0 n (%) | Serious AEs (healthy participants; Part 3 (Treatments G-I)): 0 n (%) | Total participants with an AE (healthy participants; Part 3 (Treatments G-I)): 9 (23.7) n (%) | Total participants with bleeding event(s) (healthy participants; Part 3 (Treatments G-I)): 1 (2.6) n (%) | Vessel puncture site bruise (healthy participants; Part 3 (Treatments G-I)): 0 n (%) | Events of epistaxis reported by a participant (healthy participants; bleeding AE): 1 events | Percentage of participants reporting AEs (healthy participants; by treatment, all parts): 23.7% | Increase of AUC(TAU) ([4]; Day 1): 24% | Increase of Cmax ([4]; Day 1): 40% | Increase of AUC(TAU) ([4]; Day 5): 19% | Increase of Cmax ([4]; Day 5): 33% | Cmax [4, 6]: 3050 ng/mL | Cmax [4, 7]: 2970 ng/mL | Cmax [4, 8]: 2450 ng/mL | Cmax [4, 9]: 3440 ng/mL | Cmax [4, 10]: 2890 ng/mL | Cmax [4, 11]: 2670 ng/mL | Tmax [4, 12]: 1 h | Tmax [4, 13]: 1 h | Tmax [4, 14]: 0.5 h | Tmax [4, 15]: 0.5 h | Tmax [4, 16]: 0.5 h | Tmax [4, 17]: 0.508 h

Mean T1/2 ([5]; human): approximately 8 h | Reduction of Cmax [5]: 14%
SMILES: O=C(O)[C@H](c1ccccc1Cl)N1CCc2sccc2C1 [Clopidogrel acid]

AUC ([4]; geometric mean [n] (90% CI), Day 1, Treatment A (milvexian + aspirin + clopidogrel), Part 1): 92700 ng·h/mL | AUC ([4]; geometric mean [n] (90% CI), Day 1, Treatment C (placebo + aspirin + clopidogrel), Part 1): 93500 ng·h/mL | AUC ([4]; geometric mean [n] (90% CI), Day 1, Treatment H (placebo + aspirin), Part 3): 93300 ng·h/mL | AUC ([4]; geometric mean [n] (90% CI), Day 1, Treatment I (milvexian + aspirin), Part 3): 93600 ng·h/mL | AUC [4, 10]: 92000 ng·h/mL | AUC [4, 11]: 92500 ng·h/mL | Cmax [4, 6]: 17600 ng/mL | Cmax [4, 7]: 18100 ng/mL | Cmax [4, 8]: 16500 ng/mL | Cmax [4, 9]: 16300 ng/mL | Cmax [4, 10]: 17300 ng/mL | Cmax [4, 11]: 16500 ng/mL | half-life ([4]; Day 1, Treatment A (milvexian + aspirin + clopidogrel), Part 1): 2.21 h | half-life ([4]; Day 1, Treatment C (placebo + aspirin + clopidogrel), Part 1): 2.25 h | half-life ([4]; Day 1, Treatment H (placebo + aspirin), Part 3): 2.4 h | half-life ([4]; Day 1, Treatment I (milvexian + aspirin), Part 3): 2.39 h | half-life ([4]; Day 5, Treatment C (placebo + aspirin + clopidogrel), Part 1): 2.23 h | half-life ([4]; Day 5, Treatment H (placebo + aspirin), Part 3): 2.39 h | Tmax [4, 12]: 2 h | Tmax [4, 13]: 2 h | Tmax [4, 14]: 2.03 h | Tmax [4, 15]: 2 h | Tmax [4, 16]: 2.02 h | Tmax [4, 17]: 3 h
SMILES: O=C(O)c1ccccc1O [Salicylic acid, salicylic acid]
